# In patent US20250296959A1, “B7-H3 TARGETING PEPTIDES AND CONSTRUCTS THEREOF” (Mariana Oncology Inc., priority 2024, published 2025):
# Starred links: 1 amine or outer side, 2 acyl side, 3 side chain; linkers in the order of their positions; H or OH if unused. Positions of bridges follow the written chain, without caps; N, C: chain ends. Non-standard residues stand in square brackets, D forms with d. Residues, ends and D or L forms follow the SMILES beside them. ξ: configuration not given here. *: point of attachment. X2 = O=C(O)CN1CCN(CC(=O)O)CCN(CC(=O)NCCOCCOCCOCCOCC(=O)*)CCN(CC(=O)O)CC1; Ala(piperidin-4-yl) = O=C([C@H](CC1CCN([*:3])CC1)N[*:1])[*:2]; DOTA = O=C(O)CN1CCN(CC(=O)O)CCN(CC(=O)*)CCN(CC(=O)O)CC1; Phe(4-COOH) = N[C@@H](Cc1ccc(C(=O)O)cc1)C(=O)O; Trp(5-F) = N[C@@H](Cc1c[nH]c2ccc(F)cc12)C(=O)O; PEG8 = NCCOCCOCCOCCOCCOCCOCCOCCOCCC(=O)O; 1Nal = N[C@@H](Cc1cccc2ccccc12)C(=O)O; Ala(4-THP) = N[C@@H](CC1CCOCC1)C(=O)O; AEF = NCCOc1ccc(C[C@H](N)C(=O)O)cc1; 4Pal = N[C@@H](Cc1ccncc1)C(=O)O; Tle = CC(C)(C)[C@H](N)C(=O)O; hLeu = CC(C)CC[C@H](N)C(=O)O; NMeS = CN[C@@H](CO)C(=O)O; hSer = N[C@@H](CCO)C(=O)O; Nle = CCCC[C@H](N)C(=O)O; Orn = NCCC[C@H](N)C(=O)O; CH2 = C([*:1])[*:2]; ξP = O=C(O)C1CCCN1
# Molecular target: T1, human 4lg B7-H3 (Homo sapiens, UniProt Q5ZPR3)
# T1 sequence (Q5ZPR3 29-534): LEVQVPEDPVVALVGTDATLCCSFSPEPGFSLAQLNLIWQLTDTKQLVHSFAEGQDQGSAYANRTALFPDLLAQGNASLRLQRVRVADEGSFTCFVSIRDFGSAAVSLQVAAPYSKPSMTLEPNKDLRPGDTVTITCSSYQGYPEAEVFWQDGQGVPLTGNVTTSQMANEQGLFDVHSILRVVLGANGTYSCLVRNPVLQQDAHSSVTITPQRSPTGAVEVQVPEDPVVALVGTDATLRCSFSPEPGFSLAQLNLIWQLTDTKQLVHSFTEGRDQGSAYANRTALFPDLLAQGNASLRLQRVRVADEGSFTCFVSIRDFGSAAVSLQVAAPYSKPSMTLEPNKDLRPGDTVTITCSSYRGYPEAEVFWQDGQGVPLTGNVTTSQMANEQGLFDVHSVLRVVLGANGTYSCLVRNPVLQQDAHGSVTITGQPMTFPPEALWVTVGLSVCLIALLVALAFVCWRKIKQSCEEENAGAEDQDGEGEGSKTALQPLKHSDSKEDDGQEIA
# Experiment: Affinity determination by surface plasmon resonance (SPR) to 4Ig B7-H3
# Details: 4Ig B7-H3
# [1] = SPR KD—25° C., 25° C. flow cell temperature
SMILES,Kd [1] [nM],"Kd (SPR KD—37° C., 37° C. flow cell temperature) [nM]"
"CC(=O)N[C@@H](CCC(C)C)C(=O)N[C@@H](Cc1ccc(O)cc1)C(=O)N[C@H]1CSSC[C@@H](C(=O)N[C@@H](Cc2c[nH]c3ccc(F)cc23)C(=O)N[C@@H](Cc2ccccc2)C(=O)N2CCC[C@H]2C(N)=O)NC(=O)[C@H](Cc2ccc(O)cc2)NC(=O)[C@H](C(C)C)NC(=O)[C@H](CC(=O)O)NC(=O)[C@H](CC2CCOCC2)NC(=O)[C@H](CCCCNC(=O)CN2CCN(CC(=O)O)CCN(CC(=O)O)CCN(CC(=O)O)CC2)NC(=O)CNC(=O)[C@H](C(C)C)NC1=O [compound 292, Ac-hLeu-Y-C-V-G-Lys(DOTA)-ThpA-D-V-Y-C-5FW-F-Pro-CONH2] (Ac-[hLeu]YCVGK(DOTA)[Ala(4-THP)]DVYC[Trp(5-F)]FP-NH2; disulfide 3-11)",1 to 10,
"CCCC[C@@H]1NC(=O)[C@H](C(C)C)NC(=O)[C@H](CC(=O)O)NC(=O)[C@H](Cc2ccc(C(=O)O)cc2)NC(=O)[C@H](CCCCN)NC(=O)CNC(=O)[C@H](C(C)C)NC(=O)[C@@H](NC(=O)[C@H](Cc2ccc(O)cc2)NC(=O)[C@H](CCC(C)C)NC(=O)CCOCCOCCOCCOCCOCCOCCOCCOCCNC(=O)CN2CCN(CC(=O)O)CCN(CC(=O)O)CCN(CC(=O)O)CC2)CSSC[C@@H](C(=O)N[C@@H](Cc2c[nH]c3ccc(F)cc23)C(=O)N[C@@H](Cc2ccccc2)C(=O)N2CCC[C@H]2C(N)=O)NC1=O [compound 293, DOTA-PEG8-hLeu-Y-C-V-G-K-4COOHPhe-D-V-Nle-C-5FW-F-Pro-CONH2] ({DOTA-PEG8}-[hLeu]YCVGK[Phe(4-COOH)]DV[Nle]C[Trp(5-F)]FP-NH2; disulfide 3-11)",10 to 100,
"CC(=O)N[C@@H](CCC(C)C)C(=O)N[C@@H](Cc1ccc(O)cc1)C(=O)N[C@H]1CSSC[C@@H](C(=O)N[C@@H](Cc2c[nH]c3ccc(F)cc23)C(=O)N[C@@H](Cc2ccccc2)C(=O)N[C@H](C(N)=O)[C@@H](C)O)NC(=O)[C@H](Cc2ccc(O)cc2)NC(=O)[C@H](C(C)C)NC(=O)[C@H](CC(=O)O)NC(=O)[C@H](Cc2ccc(OCCNC(=O)CN3CCN(CC(=O)O)CCN(CC(=O)O)CCN(CC(=O)O)CC3)cc2)NC(=O)[C@H](CCCCN)NC(=O)CNC(=O)[C@H](C(C)C)NC1=O [compound 295, Ac-hLeu-Y-C-V-G-K-AEF(DOTA)-D-V-Y-C-5FW-F-Thr-CONH2] (Ac-[hLeu]YCVGK[AEF](DOTA)DVYC[Trp(5-F)]FT-NH2; disulfide 3-11)",< 1,< 1
"CC(=O)N[C@@H](CCC(C)C)C(=O)N[C@@H](Cc1ccc(O)cc1)C(=O)N[C@H]1CSCSC[C@@H](C(=O)N[C@@H](Cc2cccc3ccccc23)C(=O)N[C@@H](Cc2ccccc2)C(=O)N(C)[C@@H](CO)C(=O)N[C@H](CCCCNC(=O)CN2CCN(CC(=O)O)CCN(CC(=O)O)CCN(CC(=O)O)CC2)C(N)=O)NC(=O)[C@H](Cc2ccc(O)cc2)NC(=O)[C@H](C(C)C)NC(=O)[C@H](CC(=O)O)NC(=O)[C@H](Cc2ccncc2)NC(=O)[C@H](CCCCN)NC(=O)CNC(=O)[C@H](C(C)(C)C)NC1=O [compound 297, Ac-hLeu-Y-C(CH2)-Tbg-G-K-4PyA-D-V-Y-C-1Nal-F-NMeSer-dLys(DOTA)-CONH2] (Ac-[hLeu]YC[Tle]GK[4Pal]DVYC[1Nal]F[NMeS][dK](DOTA)-NH2; linker 3-11 via CH2)",100 to 300,
"CC(=O)N[C@@H](CCC(C)C)C(=O)N[C@@H](Cc1ccc(O)cc1)C(=O)N[C@H]1CSSC[C@@H](C(=O)N[C@@H](Cc2c[nH]c3ccc(F)cc23)C(=O)N[C@@H](Cc2ccccc2)C(=O)N2CCC[C@H]2C(N)=O)NC(=O)[C@H](Cc2ccc(O)cc2)NC(=O)[C@H](C(C)C)NC(=O)[C@H](CC(=O)O)NC(=O)[C@H](Cc2ccc(OCCNC(=O)CN3CCN(CC(=O)O)CCN(CC(=O)O)CCN(CC(=O)O)CC3)cc2)NC(=O)[C@H](CC2CCNCC2)NC(=O)CNC(=O)[C@H](C(C)C)NC1=O [compound 301, Ac-hLeu-Y-C-V-G-PipAla-AEF(DOTA)-D-V-Y-C-5FW-F-Pro-CONH2] (Ac-[hLeu]YCVG[Ala(piperidin-4-yl)][AEF](DOTA)DVYC[Trp(5-F)]FP-NH2; disulfide 3-11)",< 1,
"CCCC[C@@H]1NC(=O)[C@H](C(C)C)NC(=O)[C@H](CC(=O)O)NC(=O)[C@H](Cc2ccc(C(=O)O)cc2)NC(=O)[C@H](CCCCNC(=O)CN2CCN(CC(=O)O)CCN(CC(=O)O)CCN(CC(=O)O)CC2)NC(=O)CNC(=O)[C@H](C(C)C)NC(=O)[C@@H](NC(=O)[C@H](Cc2ccc(O)cc2)NC(=O)[C@H](CCC(C)C)NC(C)=O)CSSC[C@@H](C(=O)N[C@@H](Cc2c[nH]c3ccc(F)cc23)C(=O)N[C@@H](Cc2ccccc2)C(=O)N2CCC[C@H]2C(N)=O)NC1=O [compound 302, Ac-hLeu-Y-C-V-G-Lys(DOTA)-4COOHPhe-D-V-Nle-C-5FW-F-Pro-CONH2] (Ac-[hLeu]YCVGK(DOTA)[Phe(4-COOH)]DV[Nle]C[Trp(5-F)]FP-NH2; disulfide 3-11)",100 to 300,
"CC(=O)N[C@@H](CCC(C)C)C(=O)N[C@@H](Cc1ccc(O)cc1)C(=O)N[C@H]1CSSC[C@@H](C(=O)N[C@@H](Cc2c[nH]c3ccc(F)cc23)C(=O)N[C@@H](Cc2ccccc2)C(=O)N2CCC[C@H]2C(=O)N[C@H](CCCCNC(=O)CN2CCN(CC(=O)O)CCN(CC(=O)O)CCN(CC(=O)O)CC2)C(=O)O)NC(=O)[C@H](Cc2ccc(O)cc2)NC(=O)[C@H](C(C)C)NC(=O)[C@H](CC(=O)O)NC(=O)[C@H](CC2CCOCC2)NC(=O)[C@H](CCCCN)NC(=O)CNC(=O)[C@H](C(C)(C)C)NC1=O [compound 304, Ac-hLeu-Y-C-Tbg-G-K-ThpA-D-V-Y-C-5FW-F-Pro-dLys(DOTA)-COOH] (Ac-[hLeu]YC[Tle]GK[Ala(4-THP)]DVYC[Trp(5-F)]FP[dK](DOTA)-OH; disulfide 3-11)",1 to 10,
"CC(=O)N[C@@H](CCC(C)C)C(=O)N[C@@H](Cc1ccc(O)cc1)C(=O)N[C@H]1CSSC[C@@H](C(=O)N[C@@H](Cc2c[nH]c3ccc(F)cc23)C(=O)N[C@@H](Cc2ccccc2)C(=O)N2CCC[C@H]2C(=O)O)NC(=O)[C@H](Cc2ccc(O)cc2)NC(=O)[C@H](C(C)C)NC(=O)[C@H](CC(=O)O)NC(=O)[C@H](CC2CCOCC2)NC(=O)[C@H](CCCCNC(=O)CN2CCN(CC(=O)O)CCN(CC(=O)O)CCN(CC(=O)O)CC2)NC(=O)CNC(=O)[C@H](C(C)(C)C)NC1=O [compound 305, Ac-hLeu-Y-C-Tbg-G-Lys(DOTA)-ThpA-D-V-Y-C-5FW-F-Pro-COOH] (Ac-[hLeu]YC[Tle]GK(DOTA)[Ala(4-THP)]DVYC[Trp(5-F)]FP-OH; disulfide 3-11)",100 to 300,
"CC(=O)N[C@@H](CCC(C)C)C(=O)N[C@@H](Cc1ccc(O)cc1)C(=O)N[C@H]1CSSC[C@@H](C(=O)N[C@@H](Cc2c[nH]c3ccc(F)cc23)C(=O)N[C@@H](Cc2ccccc2)C(=O)N2CCC[C@H]2C(=O)N[C@H](CCCCNC(=O)COCCOCCOCCOCCNC(=O)CN2CCN(CC(=O)O)CCN(CC(=O)O)CCN(CC(=O)O)CC2)C(=O)O)NC(=O)[C@H](Cc2ccc(O)cc2)NC(=O)[C@H](C(C)C)NC(=O)[C@H](CC(=O)O)NC(=O)[C@H](CC2CCOCC2)NC(=O)[C@H](CCCCN)NC(=O)CNC(=O)[C@H](C(C)(C)C)NC1=O [compound 307, Ac-hLeu-Y-C-Tbg-G-K-ThpA-D-V-Y-C-5FW-F-Pro-dLys(PEG4-DOTA)-COOH] (Ac-[hLeu]YC[Tle]GK[Ala(4-THP)]DVYC[Trp(5-F)]FP[dK](X2)-OH; disulfide 3-11)",1 to 10,
"COc1ccc(C[C@@H]2NC(=O)[C@H](C(C)C)NC(=O)[C@H](CC(=O)O)NC(=O)[C@H](Cc3ccncc3)NC(=O)[C@H](CCCCNC(=O)CN3CCN(CC(=O)O)CCN(CC(=O)O)CCN(CC(=O)O)CC3)NC(=O)CNC(=O)[C@H](C(C)C)NC(=O)[C@@H](NC(=O)[C@H](Cc3ccc(O)cc3)NC(=O)[C@H](CCC(C)C)NC(C)=O)CSSC[C@@H](C(=O)N[C@@H](Cc3cccc4ccccc34)C(=O)N[C@@H](Cc3ccccc3)C(=O)N3CCCC3C(N)=O)NC2=O)cc1 (stereo partly drawn) [compound 309, Ac-hLeu-Y-C-V-G-Lys(DOTA)-4PyA-D-V-OMeTyr-C-1Nal-F-Pro-CONH2] (Ac-[hLeu]YCVGK(DOTA)[4Pal]DVY(Me)C[1Nal]F[ξP]-NH2; disulfide 3-11)",1 to 10,
"CC(=O)N[C@@H](CCC(C)C)C(=O)N[C@@H](Cc1ccc(O)cc1)C(=O)N[C@H]1CSSC[C@@H](C(=O)N[C@@H](Cc2c[nH]c3ccc(F)cc23)C(=O)N[C@@H](Cc2ccccc2)C(=O)N2CCC[C@H]2C(=O)N[C@H](CCCCNC(=O)CN2CCN(CC(=O)O)CCN(CC(=O)O)CCN(CC(=O)O)CC2)C(=O)O)NC(=O)[C@H](Cc2ccc(O)cc2)NC(=O)[C@H](C(C)C)NC(=O)[C@H](CC(=O)O)NC(=O)[C@H](CC2CCOCC2)NC(=O)[C@H](CCO)NC(=O)CNC(=O)[C@H](C(C)(C)C)NC1=O [compound 311, Ac-hLeu-Y-C-Tbg-G-hSer-ThpA-D-V-Y-C-5FW-F-Pro-dLys(DOTA)-COOH] (Ac-[hLeu]YC[Tle]G[hSer][Ala(4-THP)]DVYC[Trp(5-F)]FP[dK](DOTA)-OH; disulfide 3-11)",1 to 10,
"CC(=O)N[C@@H](CCC(C)C)C(=O)N[C@@H](Cc1ccc(O)cc1)C(=O)N[C@H]1CSSC[C@@H](C(=O)N[C@@H](Cc2c[nH]c3ccc(F)cc23)C(=O)N[C@@H](Cc2ccccc2)C(=O)N2CCC[C@H]2C(=O)N[C@H](CCCCNC(=O)CN2CCN(CC(=O)O)CCN(CC(=O)O)CCN(CC(=O)O)CC2)C(=O)O)NC(=O)[C@H](Cc2ccc(O)cc2)NC(=O)[C@H](C(C)C)NC(=O)[C@H](CC(=O)O)NC(=O)[C@H](CC2CCOCC2)NC(=O)[C@H](CCCN)NC(=O)CNC(=O)[C@H](C(C)(C)C)NC1=O [compound 312, Ac-hLeu-Y-C-Tbg-G-Orn-ThpA-D-V-Y-C-5FW-F-Pro-dLys(DOTA)-COOH] (Ac-[hLeu]YC[Tle]G[Orn][Ala(4-THP)]DVYC[Trp(5-F)]FP[dK](DOTA)-OH; disulfide 3-11)",1 to 10,
